# Test system: HepG2 cells derived from liver cancer
# Experiment: Test 2: quantitative evaluation of autophagy activity (CYTO-ID/Hoechst 33342 fluorescence, microplate reader)
# Format: cell-based
# Conditions: 100 μM compound 1 or compound 2, 24 hours (positive control 500 nM rapamycin, 16 hours), then 10 μM chloroquine 6 hours; 3 wells per group
# Experimental: The active action of autophagy of the compound 1 or the compound 2 observed in Test 1 was quantitatively detected.
# HepG2 cells derived from liver cancer in 2.5×10^4 cells were plated in a 96-well plate (manufactured by Falcon), and the culture was performed for 24 hours in DMEM containing 10% FBS under the conditions of 37° C. and a CO2 concentration of 5%. After that, the cells were cultured for 24 hours by using a medium for testing prepared in (1-1) of (1) in Test 1. Further, the culture was performed in a similar manner as in Test 1 also in the negative control and the positive control. […]
# Into each well, 100 μL of an assay buffer attached to a kit (manufactured by Enzo Life Sciences, Inc.) was added, and the fluorescence intensity was measured by using a fluorescence microplate reader, SH-9000 (manufactured by CORONA ELECTRIC Co., Ltd.). The fluorescence derived from the fluorescent probe for autophagy detection was measured under the conditions of an excitation filter of 480 nm and a fluorescence filter of 530 nm. Further, the fluorescence derived from each staining reagent was measured under the conditions of an excitation filter of 340 nm and a fluorescence filter of 480 nm.
# Results of the fluorescence intensity of the cells exposed to a compound 1 or a compound 2, which was measured by a fluorescence microplate reader, are shown in Table 1. […]
structure (smiles),measurement,value
"CO[C@H]1C[C@@H]2CC[C@@H](C)[C@@](O)(O2)C(=O)C(=O)N2CCCC[C@H]2C(=O)O[C@H]([C@H](C)C[C@@H]2CC[C@@H](O)[C@H](OC)C2)CC(=O)[C@H](C)/C=C(\C)[C@@H](O)[C@@H](OC)C(=O)[C@H](C)C[C@H](C)/C=C/C=C/C=C/1C [Positive control, rapamycin]",Autophagy induction (CYTO-ID fluorescence intensity/Hoechst 33342 fluorescence intensity),93
